The values below come from patent publication US20200377568A1, “Novel IL-4-/IL-13-derived peptide compounds for the treatment or prevention of neurodegenerative or neuroinflammatory diseases” (Universitätsmedizin der Johannes Gutenberg-Universität Mainz, priority 2018, published 2020).

Test [1] deals with corticospinal tract axons. Kind of test: Analysis of axon swellings in spinal cords of EAE mice. It counts as in vivo, mouse. Conditions: EAE mice treated during the chronic phase, FIG. 7A. The procedure: A: Histological analysis of corticospinal tract axons in spinal cords of EAE mice treated during the chronic phase of the disease.
EAE experiments were performed by immunizing YFP-H mice, that express yellow fluorescent protein in corticospinal neurons, with MOG35-55. Mice were treated with IL-4 or PBS as described above. At the last treatment day, the mice were sacrificed with an overdose of anaesthesia and transcardially perfused with 4% paraformaldehyde. Spinal cords were dissected and further processed for cryosectioning. YFP-labelled corticospinal tract axons were photographed using the Keyence BZ-9000 microscope. For quantification of axon swellings, thresholds were set in ImageJ so that stained pixels were highlighted. Thresholded swellings were counted using the ImageJ plug-in “particle analysis”.

The next test has as its system CD4+ T cells. Kind of test: TH2 differentiation of naive T cells. In kind it is cell-based, mouse. To be noted: different concentrations, FIG. 4B. As for the experimental part:
(§1) A-B: Effects of incubation with IL-4 and different concentrations of Link4 and Link13 on the differentiation of A: CD11b^+ bone marrow-derived macrophages (BMDMs) into F80^+CD206^+ cells, and B: CD4^+ T cells into Gata3^+ cells. C-D: FACS results for different populations of T cells and CD11b^+MHCII^+ monocytes/macrophages/microglia of immune cells isolated from C: spleen and D: central nervous system (CNS) of EAE mice treated with PBS, IL-4 or Link4.
In order to investigate whether Link4 and Link13 are able to modulate immune cells, in vitro assays were performed on bone marrow-derived macrophages (BDMBs) and on naïve T cells.
For the isolation of T lymphocytes 5-8 week old C57BL/6 mice were sacrificed by cervical dislocation and the spleens and lymph nodes (LN) were isolated and rubbed trough a 100 μm cell strainer into a 50 ml tube with washing medium (5% FCS, 1% P/S,1% HEPES in PBS). After washing, the cells were centrifuged for 5 min at 550 g at 4° C. To remove the red blood cells the […] was re-suspended in lysis buffer followed by centrifugation (5 min, 550 g, 4° C.). The cells were resuspended in MACS buffer and magnetic lymphocyte sorting was performed on ice, using the MidiMACS and QuadroMACS Seperators. A CD4 untouched and CD8 touched cell sort was performed a washing step in ml MACS buffer (5 min, 550 g, 4° C.). Cells were incubated with CD4 T cell biotin antibody cocktail (Miltenyi Biotec) in MACS buffer for 5 min at 4° C. Subsequently, anti-biotin microbeads and CD8 microbeads in MACS buffer was added. CD8 microbeads were added to reduce the possible contamination of CD8^+ lymphocytes. After 10 min of incubation at 4° C. the cells were washed again and resuspended in MACS buffer. MACS columns were pre equilibrated and topped with pre-separation filters (30 μm). A maximum of 300×10^6 cells were added to each column followed by 3 consecutive washing steps with MACS buffer. […] The purity of the magnetic cells sorts was assessed by comparing pre- and post-sort samples by flow cytometry. […]

Test [2] relates to immune cells isolated from central nervous system (CNS). The test can be described thus: FACS of immune cells from CNS of EAE mice after nasal treatment. It counts as in vivo, mouse. Conditions: CNS (brain and spinal cord), intranasal treatment of EAE mice. The procedure: as §1
Subsequently, the effects of IL-4 and Link4 on immune cells were analysed when applied intranasally, similarly as in FIG. 3B. Since nasally applied treatments can enter the periphery (lungs, blood stream) it was of utmost importance to check whether the substances affected the lymphocyte populations in the spleen. A reduction was found of CD8^+ cytotoxic T-cells for Link4, whereas all CD4^+ T helper cell types were unchanged. The CD11 b+MHCII+ population of monocytes/macrophages was also not changed.
CNS and spleens were removed from EAE mice treated with nasal IL-4, Link4 or PBS at d35 and immune cells were isolated as previously described (M. Paterka, J. O. Voss, J. Werr, E. Reuter, S. Franck, T. Leuenberger, J. Herz, H. Radbruch, T. Bopp, V. Siffrin, and F. Zipp, Dendritic cells tip the balance towards induction of regulatory T cells upon priming in experimental autoimmune encephalomyelitis. J Autoimmun 67, 108-114 (2017)). […]

For the sequence “RARSEIIGIGSKSIMQMDY (listed as Mus musculus) [Link4]”, in test [1], the “number of axon swellings” value is reported as “significantly reduced”. For the same sequence, the “differentiation of CD4+ T cells into Gata3+ cells” value in the test with CD4+ T cells was “did not take place”. Also, in test [2], the “IL-10+ cells” value was “significant rise”.
